Measured values reported in PMC11206290, “Study of the Lipophilicity and ADMET Parameters of New Anticancer Diquinothiazines with Pharmacophore Substituents” (Pharmaceuticals, 2024).
pIC50: −log10 of the molar value.

Legend:
[1] = RP-TLC lipophilicity (RP-18 plates, acetone–TRIS buffer pH 7.4); conditions: for RM0: RP-18, acetone–TRIS buffer pH 7.4, extrapolated to zero acetone concentration; for -b / b: slope of RM = RM0 + bC; for -b: standards I–V; for C0: C0 = −RM0/b; for b: compounds 1–15
Procedure: (§1) RP-18 plates were used as the stationary phase, while organic modifiers containing acetone were used as the mobile phase. The linear relationship between RM0 and acetone concentration was determined on the basis of Equation (2) (Table 2). In addition to this, thanks to the relationship observed between RM0 and the slope of these linear plots (b), the lipophilicity parameter C0 was also determined (Table 2).
(§2) All chromatographic experiments were performed on a silica gel 60 RP-18 F254S (10 cm × 10 cm) RP-TLC plate (Merck, Darmstadt, Germany). The mobile phase was prepared by mixing the respective amount of aqueous TRIS (tris(hydroxymethyl)aminomethane) buffer, pH = 7.4 (ionic strength 0.2 M), to meet physiological conditions and acetone in a range from 50 to 80% (v/v) in increments of 5%. […] Before plate development, the chromatographic chambers were saturated with the mobile phase for 0.5 h. […] Each chromatographic experiment was run in triplicate, and then mean values of the retardation factor, i.e., RF values, were used to determine the RMW values of the compounds.
(§3) Next, the chromatographic data in the form of RM0 and coefficient b were used to calculate the lipophilicity parameter C0 [56] from the following Equation (3):(3) C0=−RM0/b

[2] = physchem
Procedure: as §1, §2, §3

[3] = tested on: BCL-2 expression; parameters: method as in PMID 30981160; conditions: RT-QPCR, A549 and SNB-19 ref 24; cited from earlier work
[4] = tested on: glioblastoma SNB-19 cell line; parameters: method as in PMID 30981160; conditions: SNB-19 cell line ref 24; cited from earlier work
[5] = tested on: BAX expression; parameters: method as in PMID 30981160; conditions: RT-QPCR, cancer cell lines ref 24; cited from earlier work
[6] = tested on: non-small lung carcinoma H1299; parameters: method as in PMID 36014495; conditions: H1299 ref 25; cited from earlier work
[7] = tested on: NHDF cells; parameters: method as in PMID 36014495; conditions: NHDF cells at IC50 doses against A549 or H1299 cells ref 25; cited from earlier work
[8] = tested on: human lung carcinoma A549; parameters: method as in PMID 36014495; conditions: A549 ref 25; cited from earlier work
[9] = tested on: lung cancer A549 cell line; parameters: method as in PMID 30981160; conditions: A549 cell line ref 24; cited from earlier work
[10] = tested on: BEAS-2B cells; parameters: method as in PMID 36014495; conditions: BEAS-2B cells at IC50 doses against A549 or H1299 cells ref 25; cited from earlier work

## c1ccc2cc3ccccc3cc2c1 [Standard IV, anthracene, reference compound]
[1]
  RM0: 3.33
  -b: 0.0412

## CN1CCCCC1CCN1c2ccc3ncccc3c2Sc2cc3ccccc3nc21 (stereo not drawn) [Compound 10, 7-(1'-M ethyl-2 '-piperydinylethyl)diquino[3,2-b;6 ',5'-e]thiazine]
[1]
  C0: 0.7599
  RM0: 3.83
  b: −5.04
[2]
  chromatographic logP: 5.13

## CCN(CC)CCN1c2nc3ccccc3cc2Sc2ccc3cccnc3c21 [Compound 11, 14-(2'-Diethylaminoethyl)diquino[3,2-b;8 ',7'-e]thiazine]
[1]
  C0: 0.7579
  RM0: 3.60
  b: −4.75
[2]
  chromatographic logP: 4.84

## c1ccc2nc3c(cc2c1)Sc1c(ccc2ncccc12)N3CCN1CCCCC1 [Compound 9, 7-(1'-Piperidinylethyl)diquino[3,2-b;6 ',5'-e]thiazine]
[1]
  C0: 0.7562
  RM0: 3.69
  b: −4.88
[2]
  chromatographic logP: 4.95

## CN1CCCCC1CCN1c2cnc3ccccc3c2Sc2cc3ccccc3nc21 (stereo not drawn) [Compound 5, 7-(1'-M ethyl-2 '-piperydinylethyl)diquino[3,2-b;3 ',4'-e]thiazine]
[1]
  C0: 0.7082
  RM0: 3.64
  b: −5.14
[2]
  chromatographic logP: 4.89

## CCN(CC)CCN1c2cnc3ccccc3c2Sc2cc3ccccc3nc21 [Compound 1, 7-(2'-Diethylaminoethyl)diquino[3,2-b;3 ',4'-e]thiazine]
[1]
  C0: 0.7233
  RM0: 3.45
  b: −4.77
[2]
  chromatographic logP: 4.64

## CN(C)CCCN1c2nc3ccccc3cc2Sc2ccc3cccnc3c21 [Compound 12, 14-(3'-Dimethylaminopropyl)diquino[3,2-b;8 ',7'-e]thiazine]
[1]
  C0: 0.7458
  RM0: 3.17
  b: −4.25
[2]
  chromatographic logP: 4.28

## c1ccc2nc3c(cc2c1)Sc1ccc2cccnc2c1N3CCN1CCCCC1 [Compound 14, 14-(1'-Piperidinylethyl)diquino[3,2-b;8 ',7'-e]thiazine]
[1]
  C0: 0.7697
  RM0: 3.61
  b: −4.69
[2]
  chromatographic logP: 4.85

## c1ccc2nc3c(cc2c1)Sc1c(cnc2ccccc12)N3CCN1CCCCC1 [Compound 4, 7-(1'-Piperidinylethyl)diquino[3,2-b;3 ',4'-e]thiazine]
[1]
  C0: 0.7117
  RM0: 3.48
  b: −4.89
[2]
  chromatographic logP: 4.68

## c1ccc2nc3c(cc2c1)Sc1c(ccc2ncccc12)N3CCN1CCCC1 [Compound 8, 7-(1'-Pyrolidinylethyl)diquino[3,2-b;6 ',5'-e]thiazine]
[3]
  Expression of BCL-2: markedly reduced
[4]
  pIC50: 6.52
[1]
  C0: 0.7565
  RM0: 3.48
  b: −4.60
[5]
  Expression of BAX: markedly reduced

## Clc1ccc(C(c2ccc(Cl)cc2)C(Cl)(Cl)Cl)cc1 [Standard V, p,p′-DDT, reference compound]
[1]
  RM0: 4.69

## CN1CCCCC1CCN1c2nc3ccccc3cc2Sc2ccc3cccnc3c21 (stereo not drawn) [Compound 15, 14-(1'-M ethyl-2 '-piperydinylethyl)diquino[3,2-b;8 ',7'-e]thiazine]
[1]
  C0: 0.7625
  RM0: 3.82
  b: −5.01
[2]
  chromatographic logP: 5.12

## CN(C)CCCN1c2cnc3ccccc3c2Sc2cc3ccccc3nc21 [Compound 2, 7-(3'-Dimethylaminopropyl)diquino[3,2-b;3 ',4'-e]thiazine]
[1]
  C0: 0.7359
  RM0: 3.01
  b: −4.09
[6]
  In vitro anticancer activity: significant in vitro anticancer activity
[7]
  Lethal effect: weak lethal effect
[8]
  In vitro anticancer activity: significant in vitro anticancer activity
[9]
  pIC50: 6.52
[10]
  Lethal effect: weak lethal effect
[2]
  chromatographic logP: 4.08

## CCN(CC)CCN1c2ccc3ncccc3c2Sc2cc3ccccc3nc21 [Compound 6, 7-(2'-Diethylaminoethyl)diquino[3,2-b;6 ',5'-e]thiazine]
[1]
  C0: 0.7588
  RM0: 3.68
  b: −4.85
[2]
  chromatographic logP: 4.94

## O=C(O)c1ccccc1 [Standard II, benzoic acid, reference compound]
[1]
  RM0: 1.16
  -b: 0.0247

## c1ccc2nc3c(cc2c1)Sc1ccc2cccnc2c1N3CCN1CCCC1 [Compound 13, 14-(1'-Pyrolidinylethyl)diquino[3,2-b;8 ',7'-e]thiazine]
[1]
  C0: 0.7672
  RM0: 3.23
  b: −4.21
[2]
  chromatographic logP: 4.36

## CN(C)CCCN1c2ccc3ncccc3c2Sc2cc3ccccc3nc21 [Compound 7, 7-(3'-Dimethylaminopropyl)diquino[3,2-b;6 ',5'-e]thiazine]
[1]
  C0: 0.7627
  RM0: 3.31
  b: −4.34
[2]
  chromatographic logP: 4.46

## CC(=O)Nc1ccccc1 [Standard I, acetanilide, reference compound]
[1]
  RM0: 0.78

## c1ccc2nc3c(cc2c1)Sc1c(cnc2ccccc12)N3CCN1CCCC1 [Compound 3, 7-(1'-Pyrolidinylethyl)diquino[3,2-b;3 ',4'-e]thiazine]
[1]
  C0: 0.7210
  RM0: 3.05
  b: −4.23
